Source: patent publication US8940310B2, “Methods of treatment using TLR7 and/or TLR9 inhibitors” (Dynavax Technologies Corporation, priority 2010, dated 2015)
[I] = hypoxanthine (inosine); d = 2'-deoxy (DNA); m = 2'-O-methyl

Test system: human B-cells
Test: Human B-cells cultured in the presence of IRPs, IL-6
[1] = Experiment # 10, Max Conc 2.0 uM
[2] = Experiment # 11, Max Conc 2.0 uM
[3] = Experiment # 4, Max Conc 4.0 uM
[4] = Experiment # 7, Max Conc 4.0 uM
[5] = Experiment # 5, Max Conc 4.0 uM
[6] = Experiment # 6, Max Conc 4.0 uM
[7] = Experiment # 8, Max Conc 2.0 uM
[8] = Experiment # 2, Max Conc 4.0 uM

“5′-UGC TGC TCC TGG AGI GGT GTT GT (DNA UGCTGCTCCTGGAGNGGTGTTGT; sugars from the 5' end m3 d20, [I] at 15, backbone not given here) [SEQ ID NO:182]” was tested, and the “Normalized IL-6 Response (Percentage of Positive Control)” value [1] was 53%.

“5′-UGC TGC TCC TGG AGI GGT TGT (DNA UGCTGCTCCTGGAGNGGTTGT; sugars from the 5' end m3 d18, [I] at 15, backbone not given here) [SEQ ID NO:125]” was tested, and the “Normalized IL-6 Response (Percentage of Positive Control)” value [2] was 38%.

“5′-UGC TGC TCC TGG AGI GGT TGT AAG T (DNA UGCTGCTCCTGGAGNGGTTGTAAGT; sugars from the 5' end m3 d22, [I] at 15, backbone not given here) [SEQ ID NO:130]” was tested, and the “Normalized IL-6 Response (Percentage of Positive Control)” value [1] was 49%.

In the case of “5′-UGCTGCTCCTTGAGGGGTTGTTTGT (DNA NNNTGCTCCTTGAGGGGTTGTTTGT; listed as DNA, chemistry not fully specified) [SEQ ID NO:107]”, the “Normalized IL-6 Response (Percentage of Positive Control)” value [3] is reported as 43% and the “Normalized IL-6 Response (Percentage of Positive Control)” value [4] is reported as 43%.

For “5′-UGCTGCTCCTTGAGGGGTTGUU UG U (DNA UGCTGCTCCTTGAGGGGTTGUUUGU; sugars from the 5' end m3 d16 m6, backbone not given here) [SEQ ID NO:104]”, the “Normalized IL-6 Response (Percentage of Positive Control)” value [3] was 7% and the “Normalized IL-6 Response (Percentage of Positive Control)” value [4] was 7%.

For “5′-UGC TGC TCC TTG AGI GG (DNA UGCTGCTCCTTGAGNGG; sugars from the 5' end m3 d14, [I] at 15, backbone not given here) [SEQ ID NO:117]”, the “Normalized IL-6 Response (Percentage of Positive Control)” value [5] was 17% and the “Normalized IL-6 Response (Percentage of Positive Control)” value [6] was 13%.

For “5′-UGC TGC TCC TTG AGI GGT GTT GT (DNA UGCTGCTCCTTGAGNGGTGTTGT; sugars from the 5' end m3 d20, [I] at 15, backbone not given here) [SEQ ID NO:180]”, the “Normalized IL-6 Response (Percentage of Positive Control)” value [1] was 46%.

With “5′-UGC TGC TCC TTG AGI GGT TGT (DNA UGCTGCTCCTTGAGNGGTTGT; sugars from the 5' end m3 d18, [I] at 15, backbone not given here) [SEQ ID NO:114]” the “Normalized IL-6 Response (Percentage of Positive Control)” value [3] was 40%, the “Normalized IL-6 Response (Percentage of Positive Control)” value [5] was 39% and the “Normalized IL-6 Response (Percentage of Positive Control)” value [6] was 39%. For the same substance, the “Normalized IL-6 Response (Percentage of Positive Control)” value [4] was 40%.

With “5′-UGC TGC TCC TTG AGI GGT TGT (DNA UGCTGCTCCTTGAGNGGTTGT; sugars from the 5' end m3 d18, [I] at 15, backbone not given here) [SEQ ID NO:126]” the “Normalized IL-6 Response (Percentage of Positive Control)” value [2] was 37%.

With “5′-UGC TGC TCC TTG AGI GGT TGT (DNA UGCTGCTCCTTGAGNGGTTGT; sugars from the 5' end m3 d18, [I] at 15, backbone not given here) [SEQ ID NO:127]” the “Normalized IL-6 Response (Percentage of Positive Control)” value [1] was 46%.

For “5′-UGC TGC TCC TTG AGI GGT TGT AAG T (DNA UGCTGCTCCTTGAGNGGTTGTAAGT; sugars from the 5' end m3 d22, [I] at 15, backbone not given here) [SEQ ID NO:129]”, the “Normalized IL-6 Response (Percentage of Positive Control)” value [1] was 51%.

For “5′-UGCTTGTCCTGGAGGGGTTGT (DNA NNNTTGTCCTGGAGGGGTTGT; listed as DNA, chemistry not fully specified) [SEQ ID NO:87]”, the “Normalized IL-6 Response (Percentage of Positive Control)” value [5] was 16% and the “Normalized IL-6 Response (Percentage of Positive Control)” value [6] was 12%.

“5′-UGC TTG TCC TGG AGI GGT GTT GT (DNA UGCTTGTCCTGGAGNGGTGTTGT; sugars from the 5' end m3 d20, [I] at 15, backbone not given here) [SEQ ID NO:124]” was tested, and the “Normalized IL-6 Response (Percentage of Positive Control)” value [7] was 33%.

In the case of “5′-UGC TTG TCC TGG AGI GGT TG-HEG-T (DNA NNNTTGTCCTGGAGNGGTTGNT; inosine, internal HEG spacer, chemistry not fully specified) [SEQ ID NO:142]”, the “Normalized IL-6 Response (Percentage of Positive Control)” value [8] is reported as 35% and the “Normalized IL-6 Response (Percentage of Positive Control)” value [7] is reported as 22%.

In the case of “5′-UGC TTG TCC TGG AGI GGT TGT (DNA UGCTTGTCCTGGAGNGGTTGT; sugars from the 5' end m3 d18, [I] at 15, backbone not given here) [SEQ ID NO:123]”, the “Normalized IL-6 Response (Percentage of Positive Control)” value [8] is reported as 35% and the “Normalized IL-6 Response (Percentage of Positive Control)” value (Experiment # 9, Max Conc 2.0 uM) is reported as 35%.

“5′TGC TCC TTG AGI GGT TGT TTG T-3′ (DNA TGCTCCTTGAGNGGTTGTTTGT; DNA, [I] at 12, backbone not given here) [SEQ ID NO:63]” was tested, and the “Normalized IL-6 Response (Percentage of Positive Control)” value [3] was 46%, the “Normalized IL-6 Response (Percentage of Positive Control)” value [5] was 48% and the “Normalized IL-6 Response (Percentage of Positive Control)” value [6] was 41%. For the same substance, the “Normalized IL-6 Response (Percentage of Positive Control)” value [4] was 46%.
